# Source: patent US7501430B2 (ArQule, Inc., priority 2006, dated 2009)
# pIC50: −log10 of the molar value.
# Target: T1, mutant B-RAF (Homo sapiens, UniProt P15056, V600E)
# T1 construct: purchased Upstate (Charlottesville, Va.)
# Test: RAF biochemical assay (MEK-1 phosphorylation, anti-phospho MEK1/2 detection)
# Conditions: not given
# Method in brief: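 Detection is by ELISA: after a 30 min room-temperature reaction, plate-captured GST-MEK-1 is probed with anti-phospho MEK1/2, then an AP-tagged secondary antibody with fluorescent Attophos read-out.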
# T1 sequence (P15056 whole entry V600E): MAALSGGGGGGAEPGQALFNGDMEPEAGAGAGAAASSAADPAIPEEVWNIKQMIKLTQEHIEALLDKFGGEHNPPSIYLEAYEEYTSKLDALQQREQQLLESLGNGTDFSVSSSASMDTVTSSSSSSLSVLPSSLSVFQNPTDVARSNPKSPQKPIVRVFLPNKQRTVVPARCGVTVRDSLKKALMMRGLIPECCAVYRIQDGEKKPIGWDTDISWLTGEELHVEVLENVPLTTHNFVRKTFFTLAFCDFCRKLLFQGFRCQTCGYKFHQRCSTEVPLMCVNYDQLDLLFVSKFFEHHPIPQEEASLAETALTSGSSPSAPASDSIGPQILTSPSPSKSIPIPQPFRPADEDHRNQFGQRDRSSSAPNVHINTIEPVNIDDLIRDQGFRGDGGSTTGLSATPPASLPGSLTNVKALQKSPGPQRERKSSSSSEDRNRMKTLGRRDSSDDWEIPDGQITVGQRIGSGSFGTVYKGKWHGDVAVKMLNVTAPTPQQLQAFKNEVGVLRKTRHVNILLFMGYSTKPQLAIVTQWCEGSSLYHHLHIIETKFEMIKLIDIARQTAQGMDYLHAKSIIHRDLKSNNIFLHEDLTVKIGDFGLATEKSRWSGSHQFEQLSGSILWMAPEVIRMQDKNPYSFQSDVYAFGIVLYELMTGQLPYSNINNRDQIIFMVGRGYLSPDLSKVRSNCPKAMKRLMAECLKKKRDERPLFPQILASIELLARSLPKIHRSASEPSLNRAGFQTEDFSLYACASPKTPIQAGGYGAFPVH
row,SMILES,pIC50
1,"COc1ccc(C(=O)N2CCC[C@@H](Nc3nccc(-c4c(-c5ccc(F)cc5)nc5occn45)n3)C2)cc1 [Example 27, 4-[6-(4-fluorophenyl)imi-dazo[2,1-b][1,3]oxazol-5-yl]-N-[(3R)-1-(4-methoxy-benzoyl)piperidin-3-yl]pyri-midin-2-amine]",5.31

# Same assay, conditions: @ 5 uM
row,SMILES,inhibition at 5 µM
1,"O=S(=O)(c1cccc(F)c1)N1CCC(Nc2nccc(-c3c(-c4ccc(F)cc4)nc4occn34)n2)CC1 [Example 237, 4-[6-(4-fluorophenyl)imidazo[2,1-b][1,3]oxazol-5-yl]-N-{1-[(3-fluorophenyl)sulfonyl]piper-idin-4-yl}pyrimidin-2-amine]",85%

# Same assay, conditions: @ 10 uM; read-out: Mutant B-RAF % inhibition
row,SMILES,inhibition at 10 µM
1,"NCCC(=O)Nc1ccccc1-c1nc2sccn2c1-c1ccnc(N[C@@H]2CCCN(S(=O)(=O)c3ccc(Cl)cc3)C2)n1 [Example 138, N~1~-(2-{5-[2-({(3R)-1-[(4-chlorophenyl)sulfonyl]piperidin-3-yl}amino)pyrimidin-4-yl]imidazo[2,1-b][1,3]thiazol-6-yl}phenyl)-beta-alaninamide]",82%
2,"O=C(NCc1ccco1)N1CCC(Nc2nccc(-c3c(-c4ccc(F)c(F)c4)nc4sccn34)n2)CC1 [Example 243, 4-({4-[6-(3,4-difluorophenyl)imidazo[2,1-b][1,3]thiazol-5-yl]pyrimidin-2-yl}amino)-N-(2-furylmethyl)piperidine-1-carboxamide]",76%
3,"Cc1cn2c(-c3ccnc(N[C@@H]4CCCNC4)n3)c(-c3ccc(F)cc3)nc2s1 [Example 79, 4-[6-(4-fluorophenyl)-2-methylimidazo[2,1-b][1,3]thiazol-5-yl]-N-((3R)-piper-idin-3-yl]pyrimidin-2-amine]",67%
4,"COCC(=O)N1CCC(Nc2nccc(-c3c(-c4ccc(F)cc4)nc4occn34)n2)CC1 [Example 163, 4-[6-(4-fluorophenyl)imidazo[2,1-b][1,3]oxazol-5-yl]-N-[1-(methoxyacetyl)piperidin-4-yl]pyrimidin-2-amine]",53%
5,"c1ccc2cc(-c3nc4sccn4c3-c3ccnc(NC4CCNCC4)n3)ccc2c1 [Example 244, 4-[6-(2-naphthyl)imidazo[2,1-b][1,3]thiazol-5-yl]-N-piperidin-4-ylpyrimidin-2-amine]",47%
6,"O=C(NCCc1ccc(F)cc1)N1CCC[C@@H](Nc2nccc(-c3c(-c4ccc(F)cc4)nc4occn34)n2)C1 [Example 71, (3R)-N-[2-(4-fluorophenyl)ethyl]-3-({4-[6-(4-fluorophenyl)imidazo[2,1-b][1,3]oxazol-5-yl]pyrimidin-2-yl}amino)piperidine-1-carboxamide]",16%

# Same assay, conditions: read-out: Mutant B-RAF % inhibition
row,SMILES,inhibition at 10 µM
1,"COc1cccc(-c2nc3sccn3c2-c2ccnc(N[C@@H]3CCCN(C(=O)c4ccc(F)cc4)C3)n2)c1 [Example 108, N-[(3R)-1-(4-fluorobenzoyl)piperidin-3-yl]-4-[6-(3-methoxyphenyl)imi-dazo[2,1-b][1,3]thiazol-5-yl]pyrimidin-2-amine]",73%

# Same assay, conditions: read-out: Mutant B-RAF IC50
row,SMILES,pIC50
1,"COc1cccc(-c2nc3sccn3c2-c2ccnc(N[C@@H]3CCCN(C(=O)NC4CCCCC4)C3)n2)c1 [Example 328, (3R)-N-cyclohexyl-3-({4-[6-(3-methoxyphenyl)imidazo[2,1-b][1,3]thiazol-5-yl]pyrimidin-2-yl}amino)piperidine-1-carboxamide]",5.40
2,"CC(=O)c1cccc(-c2nc3sccn3c2-c2ccnc(N[C@@H]3CCCN(S(=O)(=O)c4ccc(Cl)cc4)C3)n2)c1 [Example 384, 1-(3-{5-[2-({(3R)-1-[(4-chlorophenyl)sulfonyl]piperidin-3-yl)amino)pyrimidin-4-yl]imidazo[2,1-b][1,3]thiazol-6-yl}phenyl)ethanone]",5.89
3,"O=S(=O)(c1ccccc1)N1CCC(Nc2nccc(-c3c(-c4ccc(F)cc4)nc4occn34)n2)CC1 [Example 197, 4-[6-(4-fluorophenyl)imidazo[2,1-b][1,3]oxazol-5-yl]-N-[1-(phenylsulfonyl)piperidin-4-yl]pyrimidin-2-amine]",6.77
4,"Oc1cccc(-c2nc3sccn3c2-c2ccnc(N[C@@H]3CCCN(CC(O)COc4ccc(Cl)cc4)C3)n2)c1 (stereo partly drawn) [Example 331, 3-{5-[2-({(3R)-1-[3-(4-chlorophenoxy)-2-hydroxypropyl]piperidin-3-yl}amino)pyrimidin-4-yl]imidazo[2,1-b][1,3]thiazol-6-yl}phenol]",5.98
5,"COc1cc(-c2nc3sccn3c2-c2ccnc(N[C@@H]3CCCN(S(=O)(=O)c4ccc(Cl)cc4)C3)n2)ccc1F [Example 348, N-{(3R)-1-[(4-chlorophenyl)sulfonyl]piperidin-3-yl}-4-[6-(4-fluoro-3-methoxyphenyl)imidazo[2,1-b][1,3]thiazol-5-yl]pyrimidin-2-amine]",6.98
6,"CN(C)c1ccc(NC(=O)N2CCC(Nc3nccc(-c4c(-c5ccc([N+](=O)[O-])cc5)nc5sccn45)n3)CC2)cc1 [Example 253, N-[4-(dimethylamino)phenyl]-4-({4-[6-(4-nitrophenyl)imidazo[2,1-b][1,3]thiazol-5-yl]pyrimid-in-2-yl}amino)piperidine-1-carboxamide]",< 5.52
7,"O=C(COc1ccc(Cl)cc1)N1CCC(Nc2nccc(-c3c(-c4ccc(F)cc4)nc4occn34)n2)CC1 [Example 160, N-{1-[(4-chlorophenoxy)acetyl]piperidin-4-yl}-4-[6-(4-fluorophenyl)imidazo[2,1-b][1,3]oxazol-5-yl]pyrimidin-2-amine]",5.41
8,"COc1ccc(-c2nc3sccn3c2-c2ccnc(NC3CCCN(S(=O)(=O)c4ccc(Cl)cc4)C3)n2)cc1OC (stereo in doubt) [Example 135, N-{(3R)-1-[(4-chlorophenyl)sulfonyl]piperidin-3-yl}-4-[6-(3,4-dimethoxyphenyl)imidazo[2,1-b][1,3]thiazol-5-yl]pyrimidin-2-amine]",6.16
9,"CCCS(=O)(=O)N1CCC[C@@H](Nc2nccc(-c3c(-c4cccc(O)c4)nc4occn34)n2)C1 [Example 393, 3-[5-(2-{[(3R)-1-(propylsulfonyl)piperidin-3-yl]amino}pyrimidin-4-yl)imidazo[2,1-b][1,3]oxazol-6-yl]phenol]",6.48
10,"CC(C)S(=O)(=O)N1CCC[C@@H](Nc2nccc(-c3c(-c4cccc(O)c4)nc4sccn34)n2)C1 [Example 368, 3-[5-(2-{[(3R)-1-(isopropylsulfonyl)piperidin-3-yl]amino}pyrimidin-4-yl)imidazo[2,1-b][1,3]thiazol-6-yl]phenol]",< 5.52
11,"O=C(Nc1ccc(F)cc1)N1CCC(Nc2nccc(-c3c(-c4ccc(F)cc4)nc4occn34)n2)CC1 [Example 174, N-(4-fluorophenyl)-4-({4-[6-(4-fluorophenyl)imidazo[2,1-b][1,3]oxazol-5-yl]pyrimidin-2-yl}amino)piperidine-1-carboxamide]",5.33
12,"O=C(NCCc1ccccc1)N1CCC(Nc2nccc(-c3c(-c4ccc(F)cc4)nc4occn34)n2)CC1 [Example 169, 4-({4-[6-(4-fluorophenyl)imidazo[2,1-b][1,3]oxazol-5-yl]pyrimidin-2-yl}amino)-N-(2-phenylethyl)piperidine-1-carboxamide]",6.58
13,"COc1ccc(S(=O)(=O)N2CCC(Nc3nccc(-c4c(-c5ccc(F)cc5)nc5occn45)n3)CC2)cc1 [Example 200, 4-[6-(4-fluorophenyl)imidazo[2,1-b][1,3]oxazol-5-yl]-N-{1-[(4-methoxyphenyl)sulfonyl]piperidin-4-yl}pyrimidin-2-amine]",6.94
